# Experimental data published in patent publication US8598314B2 (priority 2007, dated 2013).
# Entries after “also recorded” stand apart in the source; their conditions may differ.
# Tests used:
# in vitro = settings: human, kidney or brush border membranes, pH 7.4
# Description: The tubes were incubated in VorTemp 56™ (Eurotech Labs, UK) at 37° C. vortexed at 500 RPM. At time points of 0, 1, 2, 3, 4, and 5 hours, 200 μl STOP solution (50% ACN, 1% formic acid) was added to a given tube, and the samples were allowed to incubate until the end of the experiment. The samples were collected after 5 hours, centrifuged, and 200 μl of the supernatants were transferred into mass spectrometry vials. The intensities of the mother ions in each vial were analyzed with API 150EX™ mass spectrometer (Applied Biosystems, Foster City, Calif.) and quantified using the ANALYST™ program.
# The hKBBM assay was also performed in the presence of valinepyrrolidide, a DPP-IV inhibitor.
# NIH/Swiss mice = experiment: Oral glucose tolerance test (OGTT), glucose lowering; assay type: in vivo; settings: IP injection, 2 hour fasted NIH/Swiss mice, FIGS. 5 and 6
# Description: . Test compounds were injected IP (t=0 min) immediately following baseline measurements of 2 hour fasted NIH/Swiss mice. Blood samples were taken at 60, 120, and 180 minutes after injection. In some assays, samples were also taken at 240 minutes after the injection. Blood glucose was measured with a One-Touch® Ultra® glucose meter (LifeScan, Inc., Milpitas, Calif.). […].
# The tests were performed as described in Example 5.
# recombinant DPP-IV = recombinant DPP-IV in assay buffer (25 mM Tris-HCl, 140 mM NaCl, 10 mM KCl, pH 7.4); settings: room temperature, up to 15 hours
# [1] = system: Dahl salt-sensitive (DSS) male rats; experiment: Congestive heart failure (CHF) in vivo assay; settings: 10 μg/kg/day subcutaneous infusion, high-salt diet
# Description: In this assay, Dahl salt-sensitive (DSS) male rats were weaned at 21 days of age, maintained on a low-salt (LS) diet (0.2% NaCl) for 2 weeks. Rats were anesthetized with ketamine/xylazine (50 mg/kg/10 mg/kg, IP) and telemetry transmitters (Data Sciences, Inc.) were inserted to the aortic artery when rats were at 5 weeks of age. After surgery, the rats were allowed 10 days to recuperate before their BP (systolic and diastolic pressures) was recorded.
# HS control animals (n=10 rats) were administered vehicle (50% DMSO) and fed HS in the same manner. LS control animals (n=5 rats) were maintained on the LS diet.
# ACE from rabbit lung = target: T1, ACE from rabbit lung (Oryctolagus cuniculus, UniProt P12822); experiment: ACE inhibition assay; assay type: biochemical
# T1 construct: ACE from rabbit lung; purchased Sigma Chemical Co; host or cells: rabbit lung tissue
# T1 sequence (P12822 34-1310): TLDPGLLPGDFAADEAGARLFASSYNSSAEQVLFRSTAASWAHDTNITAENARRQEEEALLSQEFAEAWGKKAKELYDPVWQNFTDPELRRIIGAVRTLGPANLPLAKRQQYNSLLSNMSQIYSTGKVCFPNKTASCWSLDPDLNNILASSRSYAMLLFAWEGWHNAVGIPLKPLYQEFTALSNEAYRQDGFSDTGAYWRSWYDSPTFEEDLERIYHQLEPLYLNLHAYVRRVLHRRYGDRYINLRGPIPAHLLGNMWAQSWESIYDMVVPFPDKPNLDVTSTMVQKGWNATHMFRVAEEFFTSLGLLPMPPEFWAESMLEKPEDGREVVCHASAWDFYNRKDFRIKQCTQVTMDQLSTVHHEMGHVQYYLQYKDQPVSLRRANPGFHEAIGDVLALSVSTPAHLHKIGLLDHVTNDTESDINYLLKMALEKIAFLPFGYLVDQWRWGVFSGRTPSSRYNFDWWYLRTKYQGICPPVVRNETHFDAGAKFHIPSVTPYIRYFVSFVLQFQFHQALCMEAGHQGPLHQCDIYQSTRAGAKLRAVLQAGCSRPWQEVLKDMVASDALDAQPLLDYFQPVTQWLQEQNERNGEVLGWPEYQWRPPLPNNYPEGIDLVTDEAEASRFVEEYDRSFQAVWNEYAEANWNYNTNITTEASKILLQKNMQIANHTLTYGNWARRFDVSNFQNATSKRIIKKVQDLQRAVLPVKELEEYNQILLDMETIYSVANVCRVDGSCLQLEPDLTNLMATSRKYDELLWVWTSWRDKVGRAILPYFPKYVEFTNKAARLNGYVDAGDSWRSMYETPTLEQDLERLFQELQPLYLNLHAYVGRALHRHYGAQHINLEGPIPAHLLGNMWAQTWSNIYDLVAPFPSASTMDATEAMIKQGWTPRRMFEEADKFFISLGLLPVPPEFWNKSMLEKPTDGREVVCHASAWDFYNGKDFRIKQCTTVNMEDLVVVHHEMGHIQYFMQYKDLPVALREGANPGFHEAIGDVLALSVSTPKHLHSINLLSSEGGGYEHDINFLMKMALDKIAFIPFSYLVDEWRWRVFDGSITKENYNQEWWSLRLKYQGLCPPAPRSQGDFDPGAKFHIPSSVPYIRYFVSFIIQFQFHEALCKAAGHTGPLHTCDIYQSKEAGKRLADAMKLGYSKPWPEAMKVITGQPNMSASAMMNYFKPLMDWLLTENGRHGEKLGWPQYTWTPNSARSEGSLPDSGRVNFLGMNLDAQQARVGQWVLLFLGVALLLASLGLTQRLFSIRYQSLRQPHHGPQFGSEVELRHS
# Description: Peptide-ACE peptidase inhibitor conjugate compounds were assessed in an ACE inhibition assay using purified ACE enzyme and chromogenic substrates. An ACE stock solution was prepared by dissolving 0.1 unit of enzyme (ACE from rabbit lung, Sigma Chemical Co., St. Louis, Mo.) in 0.640 mL of HEPES buffer (0.1 M, pH=8). A 2 mM stock solution of substrate (N-benzyloxycarbonyl-Phe-His-Leu-OH) dissolved in methanol. The ACE inhibitor compounds were dissolved in phosphate buffer (0.1 M, pH=8) at concentrations of 0.0, 1, 10, 20, 60 and 100 μM. For the inhibition assay, six 2 mL microcentrifuge tubes were prepared containing 1.45 mL of phosphate buffer pH=8, 0.05 mL of 10% NaCl and 0.015 mL of substrate solution. To each microcentrifuge tube was added 0.015 mL of one of the ACE inhibitor compound's stock solutions. The solutions were heated at 37° C. for about 5 minutes. The reaction was started by the addition of 5 μL of the ACE stock solution to each tube mixture (30 seconds in between). The reaction mixtures were incubated at 37° C. After 5 min, 10 min, 30 min and 60 min., aliquots of 100 μL were taken from each tube (each sample was taken in intervals of 30 seconds). Tubes containing the 100 μL sample were floated in a boiling water bath for 5 min. and then cooled. The reaction samples were then treated with 20 μL of 2M NaOH and 20 μL of 0.1% phthaldialdehyde solution. The tubes were shaken for 4 minutes and 10 μL of 6 M HCl were added. […] Initial rates were determined from linear portions of product release curves. Starting substrate concentration in all assays was 20 μM. Apparent binding constants (Kd^app or Ki^app) of inhibitors to ACE were determined by fitting inhibition curves (initial rate vs. inhibitor concentration) to equation:
# [formula] where v0 is reaction rate in the absence of inhibitor and [I]-inhibitor concentration. Fits were done by least-squares method using KaleidaGraph 3.6 (Synergy Software, Reading Pa.).
Compound,remaining at 4 h (in vitro),glucose lowering in OGTT (in words) (NIH/Swiss mice),not cleaved (recombinant DPP-IV),also measured
"CC[C@H](C)[C@H](NC(=O)[C@H](Cc1ccccc1)NC(=O)[C@H](CCC(=O)O)NC(=O)[C@H](CCCCN)NC(=O)[C@H](C)NC(=O)[C@H](C)NC(=O)[C@H](CCC(N)=O)NC(=O)CNC(=O)[C@H](CCC(=O)O)NC(=O)[C@H](CC(C)C)NC(=O)[C@H](Cc1ccc(O)cc1)NC(=O)[C@H](CO)NC(=O)[C@H](CO)NC(=O)[C@@H](NC(=O)[C@H](CC(=O)O)NC(=O)[C@H](CO)NC(=O)[C@@H](NC(=O)[C@H](Cc1ccccc1)NC(=O)[C@@H](NC(=O)CNC(=O)[C@H](CCC(=O)O)NC(=O)[C@H](C)NC(=O)[C@H](Cc1c[nH]cn1)NC(=O)COCCOCCNC(=O)COCCOCCNC(=O)[C@@H]1CCCN1C(=O)[C@H](C)NC(CCc1ccccc1)C(=O)O)[C@@H](C)O)[C@@H](C)O)C(C)C)C(=O)N[C@@H](C)C(=O)N[C@@H](Cc1c[nH]c2ccccc12)C(=O)N[C@@H](CC(C)C)C(=O)N[C@H](C(=O)N[C@@H](CCCCN)C(=O)NCC(=O)N[C@@H](CCCNC(=N)N)C(N)=O)C(C)C (stereo partly drawn) [Compound 4984, (R,S)-1-[N^2-(1-carboxy-3-phenylpropyl)-L-ala]-L-pro-8-amino-3,6-dioxaoctanoyl-8-amino-3,6-dioxaoctanoyl-GLP-1-(7-36) amide]",> 80%,enhance glucose-lowering action compared to GLP-1; also recorded: prolonged effect 4 hours after dosing,,
"GLP-1(7-37)-GG-(S)-2,6-diamino-1-(thiazolidin-2-cyano-3-yl)hexan-1-one amide",,,expected product ions were not observed; DPP-IV resistant under the test conditions,
"GLP-1(7-37)-GG-(S)-2,6-diamino-1-(thiazolidin-3-yl)hexan-1-one amide",,,expected product ions were not observed; DPP-IV resistant under the test conditions,
"CC[C@H](C)[C@H](NC(=O)[C@H](Cc1ccccc1)NC(=O)[C@H](CCC(=O)O)NC(=O)[C@H](CCCCN)NC(=O)[C@H](C)NC(=O)[C@H](C)NC(=O)[C@H](CCC(N)=O)NC(=O)CNC(=O)[C@H](CCC(=O)O)NC(=O)[C@H](CC(C)C)NC(=O)[C@H](Cc1ccc(O)cc1)NC(=O)[C@H](CO)NC(=O)[C@H](CO)NC(=O)[C@@H](NC(=O)[C@H](CC(=O)O)NC(=O)[C@H](CO)NC(=O)[C@@H](NC(=O)[C@H](Cc1ccccc1)NC(=O)[C@@H](NC(=O)CNC(=O)[C@H](CCC(=O)O)NC(=O)[C@H](C)NC(=O)[C@H](Cc1c[nH]cn1)NC(=O)COCCOCCNC(=O)[C@@H]1CCCN1C(=O)[C@H](C)NC(CCc1ccccc1)C(=O)O)[C@@H](C)O)[C@@H](C)O)C(C)C)C(=O)N[C@@H](C)C(=O)N[C@@H](Cc1c[nH]c2ccccc12)C(=O)N[C@@H](CC(C)C)C(=O)N[C@H](C(=O)N[C@@H](CCCCN)C(=O)NCC(=O)N[C@@H](CCCNC(=N)N)C(N)=O)C(C)C (stereo partly drawn) [Compound 4983, (R,S)-1-[N^2-(1-carboxy-3-phenylpropyl)-L-ala]-L-pro-8-amino-3,6-dioxaoctanoyl-GLP-1-(7-36) amide]",> 80%,enhance glucose-lowering action compared to GLP-1,,
CC[C@H](C)[C@H](NC(=O)[C@H](Cc1ccccc1)NC(=O)[C@H](CC(C)C)NC(=O)[C@H](CCCNC(=N)N)NC(=O)[C@@H](NC(=O)[C@H](C)NC(=O)[C@H](CCC(=O)O)NC(=O)[C@H](CCC(=O)O)NC(=O)[C@H](CCC(=O)O)NC(=O)[C@H](CC(C)C)NC(=O)[C@H](CCC(N)=O)NC(=O)[C@H](CCCCN)NC(=O)[C@H](CO)NC(=O)[C@H](CC(C)C)NC(=O)[C@H](CC(=O)O)NC(=O)[C@H](CO)NC(=O)[C@@H](NC(=O)[C@H](Cc1ccccc1)NC(=O)[C@@H](NC(=O)CNC(=O)[C@H](CCC(=O)O)NC(=O)CNC(=O)[C@@H](N)Cc1c[nH]cn1)[C@@H](C)O)[C@@H](C)O)C(C)C)C(=O)N[C@@H](CCC(=O)O)C(=O)N[C@@H](Cc1c[nH]c2ccccc12)C(=O)N[C@@H](CC(C)C)C(=O)N[C@@H](CCCCN)C(=O)N[C@@H](CCC(N)=O)C(=O)NCC(=O)NCC(=O)N1CCC[C@H]1C(=O)N[C@@H](CO)C(=O)N[C@@H](CCCCN)C(=O)N[C@@H](CCC(=O)O)C(=O)N[C@H](C(=O)N[C@H](C(=O)N[C@@H](CO)C(=O)NCCOCCOCCOCC(=O)NCCOCCOCC(=O)NCCCC[C@H](NC(CCc1ccccc1)C(=O)O)C(=O)N1CCC[C@H]1C(=O)O)[C@@H](C)CC)[C@@H](C)CC (stereo partly shown) [Compound 5715],,,,mean diastolic blood pressure at week 5 [1]: 112 mmHg; mean heart rate at week 5 [1]: 381; mean systolic blood pressure at week 5 [1]: 161 mmHg; IC50 (ACE from rabbit lung): 260 nM
